Reference: publication PMC4506530, “Small-Molecule Inhibitors That Target Protein–Protein Interactions in the RAD51 Family of Recombinases” (Chemmedchem, 2014)
Entries after “also recorded” stand apart in the source; their conditions may differ.

Experiments:
HumRADA2 [1] = molecular target: T1, HumRADA2 (Pyrococcus furiosus, UniProt O74036, D220A/DEL288-314/E219S/I169M/K221M/V202Y/Y201A); assay: Isothermal titration calorimetry (ITC), direct binding to HumRADA2
Text: We previously published fragment-screening results using a humanised RAD51 surrogate from Pyrococcus furiosus, which we refer to as HumRADA2 (previously referred to as MAYSAM RadA).[23] In this surrogate protein, the N-terminal domain with the oligomerisation sequence was removed to monomerise the protein and expose the FxxA binding site for screening, and six surface residues were mutated around the Phe pocket in order to humanise the protein in this region.
(§1) Supplemental Experimental Procedures
(§2) C-terminal ATPase domain of P. furiosus RadA (residues 108–349, with deletion of the “L2” loop residues 288–314) was expressed in E.coli and purified as described before using ion-exchange ad size exclusion chromatographies.[1] Purified protein was concentrated to 0.5 mM, flash frozen in liquid nitrogen and stored at -80C. Protein concentration was determined by measuring absorbance at 280 nm in 6M GndHCl and using calculated absorption coefficient […]
(§3) Isothermal Titration Calorimetry
(§4) ITC experiments were performed at 25°C on a MicroCal ITC-200 (GE Healthcare).
(§5) HumRadA2 (humanized RadA) (600 µM in 20 mM MES pH 6.0 with 100 mM NaCl and 0.5 mM EDTA was diluted with Tris buffer (200 mM, pH 7.5 with 100 mM NaCl), and DMSO was added to match to the ligand solution. In titrations with ATP, 5 mM MgCl2 was included in the ligand buffer and the protein buffer. Compounds in DMSO were diluted into the same Tris buffer to give a final concentration of 0.6–10 mM ligand in 10% DMSO and Tris buffer. Care was taken to ensure that the DMSO concentrations in the protein and ligand solutions were well matched so as to avoid artefacts arising from heats of dilution of DMSO. In a typical experiment, protein (60 µM) was loaded in the sample cell, and 16 injections (2.4 µL) of 4.8 s duration were made at 80 s intervals from a syringe loaded with ligand (0.6–10 mM) and rotating at 1000 rpm. In all titrations, an initial injection of ligand (0.4 µL) was made and discarded during data analysis. Control titrations of ligand to buffer were performed and […]
(§6) The thermodynamic parameters were obtained by fitting the data to a single-site-binding model by using Origin software and fixing the stoichiometry as 1.0 for […]

wild-type RadA = assay: ITC, direct binding to unhumanised wild-type RadA; set-up: species or system Pyrococcus furiosus; conditions: unhumanised wild-type RadA protein
HumRADA2 [2] = molecular target: T1, HumRADA2; assay: Competitive ITC experiments to HumRADA2 (ligand titrated in the presence of compound); assay type: binding; conditions: protein pre-incubated with compound (200 μM 5 c)
Description: The KD measurement of each ligand was then repeated, but in the presence of 200 μM 5 c (bottom row titrations, Figure 2 B).
as §1, §2, §3, §4, §5, §6

[3] = ITC thermodynamic binding profile, Table S1

## Cl.N[C@@H](Cc1c[nH]c2ccccc12)C(=O)OCCc1ccccc1 [5 c]
HumRADA2 [1]
  Kd: 35 ± 4 µM
HumRADA2 [1]; [3]
  -TDS: -3.3 kcal/mol
  DG: -6.0 kcal/mol
  DH: -2.7 kcal/mol
HumRADA2 [1]; LLE=pKD−clog P, clog P calculated with Instant JChem (ChemAxon), tryptophan ester series (Table 1)
  LLE: 1.1
HumRADA2 [1]; tryptophan ester series (Table 1)
  LE (ligand efficiency): 0.26 kcal mol−1 per heavy atom
wild-type RadA
  binding to wild-type RadA: no binding
HumRADA2 [2]
  competition with binding of Ac-FHTA-NH2 tetrapeptide: competes with and blocks the binding; also recorded: shows competition with the FxxA binding site
  competition with binding of the RadA self-oligomerisation peptide: competes with and blocks the binding; also recorded: shows competition with the FxxA binding site
  effect on binding of ATP: not affected; also recorded: not the ATP binding site
